Data as given in PubChem BioAssay (NCI).
Where “and” joins values, the source holds several entries; their conditions need not be identical. Equal entries are not always repeated.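 Grown in 96-well plates, cells were treated for 48 hours with each compound at five concentrations. Insufficient inhibition: endpoint recorded as highest concentration tested. GI50: concentration for 50% inhibition of growth. TGI: total growth inhibition.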

Assays:
Test in all cases: inhibition of tumour cell growth, NCI panel, 48 h
[1] = test system: 786-0 renal
[2] = test system: A498 renal
[3] = test system: A549 NSCLC
[4] = test system: ACHN renal
[5] = test system: BT-549 breast
[6] = test system: CAKI-1 renal
[7] = test system: CCRF-CEM leukemia
[8] = test system: COLO 205 colon
[9] = test system: DU-145 prostate
[10] = test system: EKVX NSCLC
[11] = test system: HCC-2998 colon
[12] = test system: HCT-116 colon
[13] = test system: HCT-15 colon
[14] = test system: HL-60(TB) leukemia
[15] = test system: HOP-62 NSCLC
[16] = test system: HOP-92 NSCLC
[17] = test system: HS 578T breast
[18] = test system: HT29 colon
[19] = test system: IGROV1 ovarian
[20] = test system: K-562 leukemia
[21] = test system: KM12 colon
[22] = test system: LOX IMVI melanoma
[23] = test system: M14 melanoma
[24] = test system: MALME-3M melanoma
[25] = test system: MCF7 breast
[26] = test system: MDA-MB-231 breast
[27] = test system: MDA-MB-435
[28] = test system: MDA-N
[29] = test system: MOLT-4 leukemia
[30] = test system: NCI-H226 lung
[31] = test system: NCI-H23 lung
[32] = test system: NCI-H460 lung
[33] = test system: NCI-H522 lung
[34] = test system: NCI/ADR-RES ovarian
[35] = test system: OVCAR-3 ovarian
[36] = test system: OVCAR-4 ovarian
[37] = test system: OVCAR-5 ovarian
[38] = test system: OVCAR-8 ovarian
[39] = test system: PC-3 prostate
[40] = test system: RPMI-8226 leukemia
[41] = test system: RXF 393 renal
[42] = test system: SF-268 CNS
[43] = test system: SF-295 CNS
[44] = test system: SF-539 CNS
[45] = test system: SK-MEL-2 melanoma
[46] = test system: SK-MEL-28 melanoma
[47] = test system: SK-MEL-5 melanoma
[48] = test system: SK-OV-3 ovarian
[49] = test system: SN12C renal
[50] = test system: SNB-19 CNS
[51] = test system: SNB-75 CNS
[52] = test system: SR leukemia
[53] = test system: SW-620 colon
[54] = test system: T-47D breast
[55] = test system: TK-10 renal
[56] = test system: U251 CNS
[57] = test system: UACC-257 melanoma
[58] = test system: UACC-62 melanoma
[59] = test system: UO-31 renal

Molecule `O=C(CNc1ccc([N+](=O)[O-])cc1)Nn1c(-c2ccccc2)nc2ccccc2c1=O` has a TGI [1] of 6.26 µM, a TGI [2] of 19.3 µM and a TGI [3] of 25.8 µM. It also gave a TGI [4] of 14.6 µM, a TGI [5] of 4.25 µM and a TGI [6] of 5.15 µM. The TGI [7] was > 21.6 µM, the TGI [8] was 5.31 µM and the TGI [9] was 23.3 µM. For the same molecule, the TGI [10] was 28.6 µM, the TGI [11] was 22.6 µM and the TGI [12] was 13 µM. The TGI [13] was 7.64 µM, the TGI [14] was 14 µM and the TGI [15] was 16.5 µM. For the same molecule, the TGI [16] was 6.66 µM, the TGI [17] was 8.22 µM and the TGI [18] was 13.6 µM. It also gave a TGI [19] of 12.9 µM, a TGI [20] of 5.52 µM and a TGI [21] of 15.9 µM. The TGI [22] was 2.23 µM, the TGI [23] was 8.59 µM and the TGI [24] was 4.82 µM. For the same molecule, the TGI [25] was 7.08 µM, the TGI [26] was 9.4 µM and the TGI [27] was 14.6 µM. For the same molecule, the TGI [28] was 13.8 µM, the TGI [29] was 10.6 µM and the TGI [30] was 25.2 µM. It also gave a TGI [31] of 7.13 µM, a TGI [32] of 14.3 µM and a TGI [33] of 4.79 µM. The TGI [34] was 7.65 µM, the TGI [35] was 20.4 µM and the TGI [36] was 10.3 µM. For the same molecule, the TGI [37] was 16.3 µM, the TGI [38] was 18 µM and the TGI [39] was 13.2 µM. For the same molecule, the TGI [40] was 14.8 µM, the TGI [41] was 8.84 µM and the TGI [42] was 16.4 µM. The TGI [43] was 29.8 µM, the TGI [44] was 6.61 µM and the TGI [45] was 8.37 µM. The TGI [46] was 10.8 µM, the TGI [47] was 2.61 µM and the TGI [48] was 14.9 µM. It also gave a TGI [49] of 5.19 µM, a TGI [50] of 23.1 µM and a TGI [51] of 11.3 µM. The TGI [52] was > 37.4 µM, the TGI [53] was 5.02 µM and the TGI [54] was 9.63 µM. It also gave a TGI [55] of 17 µM, a TGI [56] of 4.47 µM and a TGI [57] of 36.7 µM. It also gave a TGI [58] of 2.19 µM and a TGI [59] of 14.1 µM.
With `COc1ccc(/C=C/C(=O)OC2CC34CCNC35CC(OC5(OC)C2OC)c2ccc(OC)c(O)c24)cc1O` (stereo not drawn) the GI50 [1] was 22.2 µM and > 100 µM, the TGI [1] was 52.3 µM and > 100 µM and the TGI [2] was > 100 µM. The TGI [3] was > 100 µM, the TGI [4] was > 100 µM and the TGI [5] was > 100 µM. The TGI [6] was > 100 µM, the GI50 [7] was 30.8 µM and > 100 µM and the TGI [7] was > 100 µM. For the same molecule, the GI50 [8] was 18.4 µM and > 100 µM, the TGI [8] was 35.7 µM and > 100 µM and the TGI [9] was > 100 µM. For the same molecule, the TGI [10] was > 100 µM, the GI50 [11] was 30.6 µM and > 100 µM and the TGI [11] was 94.2 µM and > 100 µM. The GI50 [12] was 47.2 µM and > 100 µM, the TGI [12] was > 100 µM and the TGI [13] was > 100 µM. The TGI [14] was 62.8 µM, the TGI [15] was > 100 µM and the TGI [16] was > 100 µM. For the same molecule, the TGI [17] was > 100 µM, the GI50 [18] was 19.7 µM and > 100 µM and the TGI [18] was 43.6 µM and > 100 µM. The TGI [19] was > 100 µM, the GI50 [20] was 33.7 µM and > 100 µM and the TGI [20] was > 100 µM. For the same molecule, the GI50 [21] was 31.6 µM and > 100 µM, the TGI [21] was > 100 µM and the GI50 [22] was 30.4 µM and > 100 µM. For the same molecule, the TGI [22] was 76.5 µM and > 100 µM, the TGI [23] was > 100 µM and the GI50 [24] was 11.3 µM and > 100 µM. The TGI [24] was 50.9 µM and > 100 µM, the TGI [25] was > 100 µM and the GI50 [26] was 49.7 µM and > 100 µM. The TGI [26] was > 100 µM, the TGI [27] was > 100 µM and the TGI [28] was > 100 µM. The GI50 [29] was 22.4 µM and > 100 µM, the TGI [29] was 93.1 µM and > 100 µM and the TGI [30] was > 100 µM. The TGI [31] was > 100 µM, the TGI [32] was > 100 µM and the GI50 [33] was 49.6 µM and > 100 µM. For the same molecule, the TGI [33] was > 100 µM, the TGI [34] was > 100 µM and the GI50 [35] was 35.5 µM and > 100 µM. The TGI [35] was > 100 µM, the TGI [36] was > 100 µM and the TGI [37] was > 100 µM. The TGI [38] was > 100 µM, the GI50 [39] was 38.9 µM and > 100 µM and the TGI [39] was > 100 µM. For the same molecule, the GI50 [40] was 34.6 µM and > 100 µM, the TGI [40] was > 100 µM and the GI50 [41] was 21.6 µM and > 100 µM. For the same molecule, the TGI [41] was 65.6 µM and > 100 µM, the TGI [42] was > 100 µM and the TGI [43] was > 100 µM. The TGI [44] was > 100 µM, the TGI [45] was > 100 µM and the TGI [46] was > 100 µM. For the same molecule, the TGI [47] was > 100 µM, the TGI [48] was > 100 µM and the TGI [49] was > 100 µM. The TGI [50] was > 100 µM, the GI50 [51] was 14 µM and > 100 µM and the TGI [51] was 92.7 µM and > 100 µM. For the same molecule, the GI50 [52] was 25.4 µM and > 100 µM, the TGI [52] was > 100 µM and the TGI [53] was > 100 µM. The TGI [54] was > 100 µM, the TGI [55] was > 100 µM and the GI50 [56] was 38.2 µM and > 100 µM. For the same molecule, the TGI [56] was > 100 µM, the TGI [57] was > 100 µM and the TGI [58] was > 100 µM. The TGI [59] was > 100 µM.
With `CC(/C=C/c1ccccc1)=N\NC(=S)N/N=C(C)/C=C/c1ccccc1` the TGI [1] was 29.5 µM, the TGI [2] was 7.51 µM and the TGI [3] was > 100 µM. The TGI [4] was > 100 µM, the TGI [5] was 56.7 µM and the TGI [7] was > 100 µM. For the same molecule, the TGI [8] was > 100 µM, the TGI [9] was > 100 µM and the TGI [10] was > 100 µM. The TGI [11] was > 100 µM, the TGI [12] was > 100 µM and the TGI [13] was > 100 µM. For the same molecule, the TGI [14] was > 100 µM, the TGI [15] was 57.7 µM and the TGI [17] was > 100 µM. For the same molecule, the TGI [18] was > 100 µM, the TGI [19] was > 100 µM and the TGI [20] was > 100 µM. For the same molecule, the TGI [22] was 28.8 µM, the TGI [23] was > 100 µM and the TGI [24] was > 100 µM. For the same molecule, the TGI [25] was > 100 µM, the TGI [26] was 33.9 µM and the TGI [27] was > 100 µM. For the same molecule, the TGI [28] was > 100 µM, the TGI [29] was > 100 µM and the TGI [30] was 63.1 µM. For the same molecule, the TGI [31] was > 100 µM, the TGI [32] was 25.6 µM and the TGI [33] was 69 µM. It also gave a TGI [34] of 99.5 µM, a TGI [35] of 66.5 µM and a TGI [36] of 28.5 µM. For the same molecule, the TGI [37] was > 100 µM, the TGI [38] was 64.5 µM and the TGI [39] was > 100 µM. The TGI [41] was 40.7 µM, the TGI [42] was 21.7 µM and the TGI [43] was 61.6 µM. The TGI [44] was 47.2 µM, the TGI [45] was 50.3 µM and the TGI [46] was > 100 µM. For the same molecule, the TGI [47] was 42.8 µM, the TGI [48] was > 100 µM and the TGI [49] was > 100 µM. The TGI [50] was 74.7 µM, the TGI [51] was 48.7 µM and the TGI [52] was > 100 µM. The TGI [53] was > 100 µM, the TGI [54] was > 100 µM and the TGI [55] was 46 µM. The TGI [56] was 16.2 µM, the TGI [57] was > 100 µM and the TGI [58] was > 100 µM. The TGI [59] was > 100 µM.
